{
  "source": "patent US10488411B2",
  "about": "“Inflammasome activation in myelodysplastic syndromes” (H. LEE MOFFITT CANCER CENTER AND RESEARCH INSTITUTE, INC., priority 2015, dated 2019)",
  "key": {"β-catenin [1]": {"system": "β-catenin", "assay": "β-catenin confocal microscopy in U2AF1 S34F mutant TF-1 cells", "format": "cell-based", "details": "treated for 24 hours prior to staining", "experimental": "Reagents and cells. U937 cells were grown in RPMI1640 supplemented with 10% FBS. TF-1 U2AF1 mutant and mock WT cells were cultured in RPMI1640 supplemented with 10% FBS and 2 ng/mL recombinant human GM-CSF. Cells were maintained at 37° C. under 5% CO2. Normal, heparinized BM aspirates were purchased from Lonza Walkersville or AllCells, LLC. […] J Clin Invest. 2013 123(11):4595-611). The IRAK4 inhibitor was acquired through material transfer agreement from Nimbus Discovery. NAC and DPI were purchased from Sigma-Aldrich. Active caspase-1 and caspase-3/7 were detected using FAM-FLICA® Caspase-1 and Caspase-3/7 activity kits, (ImmunoChemistry Technologies). NLRP1 antibodies were purchased from Santa Cruz Biotechnology, NLRP3 antibodies from Abcam, and β-catenin antibodies from BD Biosciences. Immunofluorescence confocal microscopy. MDS and normal donor BM-MNC and mouse BM cells were stained with 30× FAM-FLICA® Caspase-1 solution at a ratio of 1:30 for 2 hours at 37° C. Cells were washed and cytospins were generated using a 5 minutes centrifugation at 450 rpm. Slides were fixed at 37° C. for 10 minutes using BD Cytofix Fixation Buffer (BD Biosciences), and subsequently washed using PBS. […] Co-localization of a-caspase-1 with NLRP3 inflammasome complexes was assessed using a Leica TCS SP5 AOBS Laser Scanning Confocal microscope (Leica Microsystems). […]"}, "inflammasome": {"system": "inflammasome", "assay": "ASC staining flow cytometry for inflammasome formation in SF3B1-K700E BM cells", "format": "cell-based, mouse", "details": "24 hours treatment", "experimental": "ASC staining to detect inflammasome formation by flow cytometry. Staining was carried out as described ([…], et al. J Immunol. 2015 194(1):455-62). Briefly, cell pellets were resuspended in 1 mL of prewarmed BD Permeabilization Buffer III, and incubated on ice for 30 minutes. Cells were washed 2× with staining buffer. Following washing, cells were stained with rabbit-anti-ASC primary antibodies at a 1:1500 dilution and incubated for 90 minutes. Cells were washed, stained with secondary antibodies at a dilution of 1:1500, and incubated for 45 minutes. Cells were washed, and sample acquisitions were carried out using a BD LSR II flow cytometer and FACSDiva software."}, "ROS [2]": {"system": "ROS", "assay": "ROS detection by flow cytometry in SF3B1-K700E BM cells", "format": "cell-based, mouse", "details": "NAC or DPI treatment", "excerpt": "(§1) ROS detection. ROS were detected using CM-H2DCFDA and CellROX® Deep Red Reagent according to manufacturer's protocol (Life Technologies)."}, "β-catenin [3]": {"system": "β-catenin", "assay": "β-catenin confocal microscopy in SF3B1-K700E BM cells", "format": "cell-based, mouse", "details": "24 hours treatment", "experimental": "(§2) Immunofluorescence confocal microscopy. MDS and normal donor BM-MNC and mouse BM cells were stained with 30× FAM-FLICA® Caspase-1 solution at a ratio of 1:30 for 2 hours at 37° C. Cells were washed and cytospins were generated using a 5 minutes centrifugation at 450 rpm. Slides were fixed at 37° C. for 10 minutes using BD Cytofix Fixation Buffer (BD Biosciences), and subsequently washed using PBS. Cells were permeabilized with 0.1% Triton X-100/2% BSA in PBS for 15 minutes at room temperature. After washing with PBS, cells were blocked using 2% BSA in PBS for 30 minutes at room temperature, and washed again. Cells were incubated with the appropriate primary antibody overnight (1:400 for NLRP3, 1:20 for β-catenin) at 4° C. The next day, cells were washed with PBS and incubated with the appropriate secondary antibodies (1:500) for 1 hour at room temperature. After washing, cells were covered with ProLong Gold Antifade Reagent with DAPI prior to the addition of a coverslip (Life Technologies). Co-localization of a-caspase-1 with NLRP3 inflammasome complexes was assessed using a Leica TCS SP5 AOBS Laser Scanning Confocal microscope (Leica Microsystems). Analysis of the inflammasome images was performed with Definiens Developer 2.0 (Definiens AG). The software was used to segment cells based on brightness and size thresholds, followed by a watershed segmentation algorithm. […]"}, "ROS [4]": {"system": "ROS", "assay": "ROS detection by flow cytometry in U937 cells", "format": "cell-based", "details": "U937, 5 μg/mL, 24 hours, compared to untreated cells", "excerpt": "as §1"}, "U937 cells [5]": {"system": "U937 cells", "assay": "Pore formation, ethidium bromide uptake in U937 cells", "format": "cell-based", "details": "U937, 5 μg/mL rhS100A9, 12.5 μg/mL ethidium bromide"}, "β-catenin [6]": {"system": "β-catenin", "assay": "β-catenin confocal microscopy in U937 cells", "format": "cell-based", "details": "5 μg/mL, 24 hours, compared to untreated cells"}, "NLRP3 inflammasome [7]": {"target": "T1, NLRP3 inflammasome (Homo sapiens, UniProt Q96P20)", "T1 construct": "endogenous in cells; host or cells: U937 cells", "T1 sequence (Q96P20 whole entry)": "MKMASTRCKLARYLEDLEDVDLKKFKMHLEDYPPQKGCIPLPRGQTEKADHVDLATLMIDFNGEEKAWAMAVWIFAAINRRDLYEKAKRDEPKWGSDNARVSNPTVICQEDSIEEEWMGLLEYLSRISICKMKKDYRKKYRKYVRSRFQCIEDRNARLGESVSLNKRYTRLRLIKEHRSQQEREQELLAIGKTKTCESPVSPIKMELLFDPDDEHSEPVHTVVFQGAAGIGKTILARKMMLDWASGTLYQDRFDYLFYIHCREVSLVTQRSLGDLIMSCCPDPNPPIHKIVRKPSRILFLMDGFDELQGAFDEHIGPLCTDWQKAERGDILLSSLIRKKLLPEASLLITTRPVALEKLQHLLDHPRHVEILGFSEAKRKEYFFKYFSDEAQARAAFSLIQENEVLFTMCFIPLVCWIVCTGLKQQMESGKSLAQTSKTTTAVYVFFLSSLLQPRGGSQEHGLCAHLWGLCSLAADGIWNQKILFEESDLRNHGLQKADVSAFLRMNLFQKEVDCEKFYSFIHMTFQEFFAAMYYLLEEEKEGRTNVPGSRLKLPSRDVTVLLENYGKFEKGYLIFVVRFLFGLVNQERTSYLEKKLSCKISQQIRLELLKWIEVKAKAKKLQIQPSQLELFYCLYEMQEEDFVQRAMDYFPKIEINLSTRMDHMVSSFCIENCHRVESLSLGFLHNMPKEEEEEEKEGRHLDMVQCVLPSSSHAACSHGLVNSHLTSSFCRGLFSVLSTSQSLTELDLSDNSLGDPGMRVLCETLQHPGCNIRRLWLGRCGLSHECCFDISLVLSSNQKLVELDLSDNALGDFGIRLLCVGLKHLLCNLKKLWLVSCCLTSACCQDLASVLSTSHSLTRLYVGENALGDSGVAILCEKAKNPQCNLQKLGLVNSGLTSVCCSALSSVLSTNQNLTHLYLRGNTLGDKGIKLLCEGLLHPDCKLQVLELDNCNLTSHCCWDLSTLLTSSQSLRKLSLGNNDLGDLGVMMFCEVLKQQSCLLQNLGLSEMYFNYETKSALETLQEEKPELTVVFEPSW", "assay": "Confocal microscopy of a-caspase-1/NLRP3 inflammasome formation in U937 cells", "format": "cell-based", "details": "5 μg/mL, 24 hours"}, "β-catenin [8]": {"system": "β-catenin", "assay": "β-catenin confocal microscopy in normal BM-MNC", "format": "cell-based, human", "experimental": "as §2"}, "NLRP3 inflammasome [9]": {"system": "NLRP3 inflammasome", "assay": "Confocal microscopy of a-caspase-1/NLRP3 in WT mouse BM cells treated with rhS100A9", "format": "cell-based", "details": "5 μg/mL, 24 hours", "experimental": "(§3) Immunofluorescence confocal microscopy. MDS and normal donor BM-MNC and mouse BM cells were stained with 30× FAM-FLICA® Caspase-1 solution at a ratio of 1:30 for 2 hours at 37° C. Cells were washed and cytospins were generated using a 5 minutes centrifugation at 450 rpm. Slides were fixed at 37° C. for 10 minutes using BD Cytofix Fixation Buffer (BD Biosciences), and subsequently washed using PBS. Cells were permeabilized with 0.1% Triton X-100/2% BSA in PBS for 15 minutes at room temperature. After washing with PBS, cells were blocked using 2% BSA in PBS for 30 minutes at room temperature, and washed again. Cells were incubated with the appropriate primary antibody overnight (1:400 for NLRP3, 1:20 for β-catenin) at 4° C. The next day, cells were washed with PBS and incubated with the appropriate secondary antibodies (1:500) for 1 hour at room temperature. After washing, cells were covered with ProLong Gold Antifade Reagent with DAPI prior to the addition of a coverslip (Life Technologies). Co-localization of a-caspase-1 with NLRP3 inflammasome complexes was assessed using a Leica TCS SP5 AOBS Laser Scanning Confocal microscope (Leica Microsystems). Analysis of the inflammasome images was performed with Definiens Developer 2.0 (Definiens AG). The software was used to segment cells based on brightness and size thresholds, followed by a watershed segmentation algorithm. Intensity values and Pearson's correlation coefficient were extracted from the segmented cells. For β-catenin image analysis, confocal images were imported into Definiens Tissue Studio v3.0, 64 Dual in .tif format. Cells were separated from background using the RGB thresholds. Nuclei were identified by setting thresholds in the DAPI channel. Typical cells averaged 60 microns. The red intensity (β-catenin) in the nucleus and cytoplasm was established by setting thresholds to low, medium and high in the red channel on a scale of 0-255 in the red channel."}, "U937 cells [10]": {"system": "U937 cells", "assay": "Comet assay of DNA damage in U937 cells", "format": "cell-based", "details": "U937, 5 μg/mL, 24 hours, compared to untreated cells", "experimental": "Comet assays. Monocytic U937 cells were treated with 5 μg/mL rhS100A9 for 24 hr. DNA damage was measured by single cell gel electrophoresis using alkaline CometAssay® according to manufacturer's protocol (Trevigen Inc.)."}, "NLRP3 inflammasome [11]": {"system": "NLRP3 inflammasome", "assay": "Confocal microscopy of a-caspase-1/NLRP3 in normal BM-MNC treated with rhS100A9", "format": "cell-based, human", "details": "5 μg/mL, 24 hours", "experimental": "as §3"}, "[12]": {"system": "pyroptosis-associated genes", "assay": "qPCR of pyroptosis-associated genes in normal BM-MNC treated with rhS100A9", "format": "cell-based, human", "details": "normal BM-MNC (n=2), 1 μg/mL, 24 hours", "experimental": "Real-time quantitative PCR. RNA was isolated from BM-MNC using the RNeasy Mini Kit (Qiagen). cDNA was produced using the iScript cDNA Synthesis Kit (Bio-Rad). Sequences for primers can be found in Table 1. GAPDH mRNA was used for transcript normalization. cDNA was amplified using the iQ SYBR Green Supermix and the CFX96 Real-Time PCR Detection System (Bio-Rad). PCR conditions were as follows: 10 minutes at 95° C., followed by 40 cycles of amplification (15 seconds at 95° C. and 1 minute at 60° C.). Relative gene expression was calculated using the −2^ΔΔCt method."}, "U937 cells [13]": {"system": "U937 cells", "assay": "S100A9 flow cytometry experiments in U937 cells (a-caspase-1/annexin-V)", "format": "cell-based", "experimental": "S100A9 flow cytometry experiments in U937 cells. Monocytic U937 cells were treated with the indicated concentrations of rhS100A9 for 24 hours, or with 5 μg/mL rhS100A9 for the indicated time points. Subsequently, cells were stained with 30× FAM-FLICA® Caspase-1 solution at a ratio of 1:30 for 2 hours at 37° C. Cells were washed, resuspended in 1× binding buffer, and stained with Annexin-V:PE at a dilution of 1:30 for 15 minutes at room temperature. 1× binding buffer was added to a final volume of 350 μL. Sample acquisitions were carried out using a BD FACSCalibur flow cytometer (BD Biosciences). Data were analyzed using FlowJo 9.7.5 software."}, "[14]": {"details": "increasing concentrations, 24 hours"}},
  "data": [
    {"compound": "c1ccc2c(c1)[I+]c1ccccc1-2", "note": "[DPI]", "values": [
      {"measurement": "β-catenin activation in U2AF1-S34F mutant cells", "setting": "β-catenin [1]", "result": "effectively reduced"},
      {"measurement": "inflammasome formation (ASC) in SF3B1-K700E mutant-expressing BM cells", "setting": "inflammasome", "result": "significantly reduced"},
      {"measurement": "ROS MFI in SF3B1-K700E BM cells", "setting": "ROS [2]", "result": "extinguished below the level of WT controls"},
      {"measurement": "mean percentage of ROS+ cells in SF3B1-K700E BM cells", "setting": "ROS [2]", "result": "extinguished below the level of WT controls"},
      {"measurement": "percentage of cells with elevated levels of nuclear β-catenin in SF3B1-K700E BM cells", "setting": "β-catenin [3]", "result": "significantly reduced"}
    ]},
    {"compound": "rhS100A9: recombinant human S100A9, alarmin / DAMP protein, TLR4 and CD33 ligand", "values": [
      {"measurement": "fold increase in mean percentage of ROS-positive cells", "setting": "ROS [4]", "result": 2.9, "unit": "fold"},
      {"measurement": "uptake of ethidium bromide", "setting": "U937 cells [5]", "result": "rapid and substantial uptake"},
      {"measurement": "levels of nuclear (activated) β-catenin in U937", "setting": "β-catenin [6]", "result": "marked increases"},
      {"measurement": "levels of NLRP3 inflammasome complexes in U937", "setting": "NLRP3 inflammasome [7]", "result": "markedly increased"},
      {"measurement": "levels of nuclear β-catenin in normal BM-MNC", "setting": "β-catenin [8]; 5 μg/mL, 24 hours, compared to controls", "result": "elevated levels"},
      {"measurement": "inflammasome complexes", "setting": "NLRP3 inflammasome [9]", "result": "marked induction"},
      {"measurement": "MFI of NLRP3", "setting": "NLRP3 inflammasome [9]; versus controls", "result": "significantly increased"},
      {"measurement": "MFI of a-caspase-1", "setting": "NLRP3 inflammasome [9]; versus controls", "result": "significantly increased"},
      {"measurement": "fold increase in DNA damage", "setting": "U937 cells [10]", "result": 4.1, "unit": "fold"},
      {"measurement": "NLRP3 levels, fold induction", "setting": "NLRP3 inflammasome [11]", "result": 47.1, "unit": "fold"},
      {"measurement": "a-caspase-1 levels, fold induction", "setting": "NLRP3 inflammasome [11]", "result": 2.5, "unit": "fold"},
      {"measurement": "formation of NLRP3 inflammasomes, fold induction", "setting": "NLRP3 inflammasome [11]", "result": 2.9, "unit": "fold"},
      {"measurement": "expression of pyroptosis-associated genes", "setting": "[12]", "result": "significantly up-regulated"},
      {"measurement": "activation of caspase-1 in U937 over time", "setting": "U937 cells [13]; 5 μg/mL", "result": "time-dependent increase"},
      {"measurement": "a-caspase-1 MFI in U937", "setting": "U937 cells [13]; [14]", "result": "corresponding increase"},
      {"measurement": "fraction of pyroptotic cells in U937", "setting": "U937 cells [13]; [14]", "result": "concentration-dependent increase"},
      {"measurement": "percentage of a-caspase-1+ cells in U937", "setting": "U937 cells [13]; [14]", "result": "corresponding increase"}
    ]},
    {"compound": "CC(=O)N[C@@H](CS)C(=O)O", "note": "[NAC, N-acetylcysteine]", "values": [
      {"measurement": "S100A9-triggered nuclear translocation of β-catenin in normal BM-MNC", "setting": "β-catenin [8]; S100A9 treatment of normal BM-MNC", "result": "abolished"},
      {"measurement": "β-catenin activation in U2AF1-S34F mutant cells", "setting": "β-catenin [1]", "result": "effectively reduced"},
      {"measurement": "inflammasome formation (ASC) in SF3B1-K700E mutant-expressing BM cells", "setting": "inflammasome", "result": "significantly reduced"},
      {"measurement": "ROS MFI in SF3B1-K700E BM cells", "setting": "ROS [2]", "result": "extinguished below the level of WT controls"},
      {"measurement": "mean percentage of ROS+ cells in SF3B1-K700E BM cells", "setting": "ROS [2]", "result": "extinguished below the level of WT controls"},
      {"measurement": "percentage of cells with elevated levels of nuclear β-catenin in SF3B1-K700E BM cells", "setting": "β-catenin [3]", "result": "significantly reduced"}
    ]}
  ]
}
